In patent US20150057344A1, “PELTATIN FOR THE TREATMENT OF CHRONIC INFLAMMATORY DISORDERS” (priority 2012, published 2015):

Legend:
PPARγ = test: hPPARg reporter bioassay (Gal4-hPPAR / UAS-luciferase) in HeLa cells; format: cell-based; conditions: human HeLa cells, dose response
Text: (§1) In more detail, when PPARs fix their ligands they are able to shuttle from cytoplasm to the nucleus of HeLa cells. Then, PPARs heterodimerize with co-receptors called Retinoid-X-Receptors (RXR). Heterodimeric transcription factors PPAR/RXR are responsible for PPARs-mediated transcriptional program. In this system, hPPARs are fused to Gal4. Gal4 is a yeast transcription activator which specifically binds a Gal4 responsive element so-called Upstream Activation Sequence (UAS)— this short section in a promoter region strongly activates gene transcription. Therefore, cotransfection of Gal4-hPPARs with UAS-luciferase constructs allows identification hPPARs agonists. Agonists will stimulate luciferase transcription resulting in the formation of a functional enzyme that converts substrate to detectable signal by a chemiluminescent reaction.
(§2) The assays detect binding of a ligand to the hPPAR of interest by directly measuring luciferase activity. When PPARs fixe their ligands they are able to shuttle from cytoplasm to the nucleus of HeLa cells. Then, PPARs heterodimerize with co-receptors called Retinoid-X-Receptors (RXR). […]
(§3) An edible plant fraction library was tested for PPARs agonist activity and toxicity. Then relevant plant fractions were further analyzed and bioactive(s) characterized and validated with the same hPPARa, hPPARg or hPPARd reporter bioassays. […]

PPARα = test: hPPARa reporter bioassay (Gal4-hPPAR / UAS-luciferase) in HeLa cells; format: cell-based; conditions: human HeLa cells, dose response
Text: as §1, §2, §3

HeLa cells = test: Cellular toxicity, standard method, compared to untreated cells; format: cell-based, human; conditions: up to highest dose used
Protocol: The AC50 (upper part of the insert) and the maximum % activation (lower part of the insert) are given. Cellular toxicity was also assessed with standard method compared to untreated cells and shown in % of toxicity.
An edible plant fraction library was tested for PPARs agonist activity and toxicity. Then relevant plant fractions were further analyzed and bioactive(s) characterized and validated with the same hPPARa, hPPARg or hPPARd reporter bioassays. The reporter bioassay we used in order to identify anti-inflammatory plant properties targeted activation of human PPARs in human HeLa cells (as described in the FIG. 1). All isolated bioactives were tested in a dose response manner in duplicate. Assays were repeated 3-4 times. Shown are mean values obtained. Therefore specificity (for all the three known human PPAR receptors namely PPARα, PPARd and PPARg) and efficacy (full agonist i.e. % maximal activity >100% or partial agonist i.e. % maximal activity <100%) were tested (FIG. 2-4).

Compound	agonistic activity on PPARγ (PPARγ)	agonistic activity on PPARα (PPARα)	cellular toxicity (% of toxicity) (HeLa cells; FIG. 2, alongside PPARα activation dose-response)	cellular toxicity (% of toxicity) (HeLa cells; FIG. 3, alongside PPARg activation dose-response)	cellular toxicity (% of toxicity) (HeLa cells; FIG. 4, alongside PPARd activation dose-response)
COc1cc([C@@H]2c3cc4c(cc3[C@H](O)[C@H]3COC(=O)[C@H]23)OCO4)cc(OC)c1OC [podophyllotoxin]	dual agonistic activity	dual agonistic activity			
COc1cc([C@@H]2c3cc4c(c(O)c3C[C@H]3COC(=O)[C@@H]32)OCO4)cc(OC)c1OC [β-peltatin]	dual agonistic activity	dual agonistic activity	no toxicity was observed	no toxicity was observed	no toxicity was observed
